Test results from patent publication US9029389B2 (Institut Pasteur Korea, priority 2011, dated 2015).

Molecular target: T1, Human 5-lipoxygenase (Homo sapiens, UniProt P09917)
T1 construct: purchased Cayman 60402; host or cells: insect cells
T1 sequence (P09917 1-674): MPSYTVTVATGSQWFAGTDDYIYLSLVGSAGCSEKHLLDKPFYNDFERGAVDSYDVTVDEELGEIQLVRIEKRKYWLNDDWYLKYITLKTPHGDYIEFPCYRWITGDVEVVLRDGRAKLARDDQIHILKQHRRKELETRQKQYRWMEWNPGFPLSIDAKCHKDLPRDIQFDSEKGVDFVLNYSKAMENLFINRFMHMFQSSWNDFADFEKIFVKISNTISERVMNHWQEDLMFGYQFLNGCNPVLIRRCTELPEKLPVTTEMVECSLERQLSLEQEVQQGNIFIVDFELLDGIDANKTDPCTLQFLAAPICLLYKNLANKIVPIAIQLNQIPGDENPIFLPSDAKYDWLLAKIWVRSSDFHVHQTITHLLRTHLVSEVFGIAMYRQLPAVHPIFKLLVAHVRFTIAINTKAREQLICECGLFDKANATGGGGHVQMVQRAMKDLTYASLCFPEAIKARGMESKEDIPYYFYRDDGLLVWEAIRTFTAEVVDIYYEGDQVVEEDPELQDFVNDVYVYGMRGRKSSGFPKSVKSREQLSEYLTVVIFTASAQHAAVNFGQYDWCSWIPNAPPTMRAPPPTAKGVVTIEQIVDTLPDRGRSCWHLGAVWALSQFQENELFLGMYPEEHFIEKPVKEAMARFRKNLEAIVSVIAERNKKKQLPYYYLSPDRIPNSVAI
Experiment: Activity of compounds against 5-LO enzyme (LTB4 measurement and/or fluorescence method)
Type: biochemical
Conditions: for inhibition at 10 µM: 5-LO, single concentration of 10 uM in duplicate; for IC50: 6 or 11 point dose response in duplicate
Procedure, shortened: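 Insect-cell human 5-LO preincubated 15 min at RT with compound (pH 7.4, 2 mM CaCl2, 0.1 mM ATP, 1% DMSO), then 3 uM arachidonic acid for 5 min at 37 °C; LTB4 quantified by EIA and/or LC/MS/MS. Alternatively, fluorescence of 5-HpETE via H2DCFDA, 100 uM ATP, 3 uM arachidonic acid, 5 min, RT; single 10 uM screen then 6- or 11-point IC50.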

Row | inhibition at 10 µM [%] | IC50 [µM] | SMILES
1 | < 40 |  | CCc1nc2ccc(Cl)cn2c1C(=O)N1CCC(OCc2ccc(C)cc2)CC1 [compound 331, (6-chloro-2-ethylimidazo[1,2-a]pyridin-3-yl)(4-((4-methylbenzyl)oxy)piperidin-1-yl)methanone]
2 | > 69 |  | CCc1nc2ccc(Cl)cn2c1C(=O)NCc1ccc(N2CCC(C(=O)c3ccc(OC(F)(F)F)cc3)CC2)cc1 [compound 324, 6-chloro-2-ethyl-N-(4-(4-(4-(trifluoromethoxy)benzoyl)piperidin-1-yl)benzyl)imidazo[1,2-a]pyridine-3-carboxamide]
3 | < 40 |  | CCc1nc2ccc(Cl)cn2c1C(=O)NCc1ccc(-c2cccc(C#N)c2)cc1 [compound 99, 6-Chloro-N-((3′-cyanobiphenyl-4-yl)methyl)-2-ethylimidazo[1,2-a]pyridine-3-carboxamide]
4 | > 69 | 1 to 20 | CCc1nc2cc(Cl)ccn2c1C(=O)NCc1ccc(Oc2ccc(OC(F)(F)F)cc2)nc1 [compound 190, 7-Chloro-2-ethyl-N-((6-(4-(trifluoromethoxy)phenoxy)pyridin-3-yl)methy)imidazo[1,2-a]pyridine-3-carboxamide]
5 | 40 to 69 |  | CCc1nc2cc(Cl)ccn2c1C(=O)NCc1ccc2[nH]c(-c3ccc(OC(F)(F)F)cc3)nc2c1 [compound 186, 7-Chloro-2-ethyl-N-((2-(4-(trifluoromethoxy)phenyl)-1H-benzo[d]imidazol-5-yl)methyl)imidazo[1,2-a]pyridine-3-carboxamide]
6 |  | < 1 | CCc1nc2cnccn2c1CNc1ccc(N2CCN(c3ccc(F)cc3)CC2)cc1 [compound 398, N-((2-Ethylimidazo[1,2-a]pyrazin-3-yl)methyl)-4-(4-(4-fluorophenyl)piperazin-1-yl)aniline]
7 | < 40 |  | Cc1ccn2c(C(=O)NCc3ccccc3)c(C)nc2c1 [compound 32, N-Benzyl-2,7-dimethylimidazo[1,2-a]pyridine-3-carboxamide]
8 | > 69 | 1 to 20 | CCc1nc2ccc(Cl)cn2c1C(=O)NCc1ccc(-c2ccc(Cl)cc2C(F)(F)F)cc1 [compound 100, 6-Chloro-N-((4′-chloro-2′-(trifluoromethyl)biphenyl-4-yl)methyl)-2-ethylimidazo[1,2-a]pyridine-3-carboxamide]
9 | < 40 |  | CCc1nc2cc(Cl)c(Cl)cn2c1C(=O)NCc1ccc(N2CCN(c3ccc(F)cc3)CC2)cc1 [compound 180, 6,7-Dichloro-2-ethyl-N-(4-(4-(4-fluorophenyl)piperazin-1-yl)benzyl)imidazo[1,2-a]pyridine-3-carboxamide]
10 | 40 to 69 |  | CCc1nc2ccc(Cl)cn2c1C(=O)NCc1ccc(N2CCC(Oc3ccc(F)cc3)CC2)cc1 [compound 308, 6-Chloro-2-ethyl-N-(4-(4-(4-fluorophenoxy)piperidin-1-yl)benzyl)imidazo[1,2-a]pyridine-3-carboxamide]
11 | 40 to 69 | 1 to 20 | CCc1nc2ccc(Cl)cn2c1C(=O)NCc1ccc(OC(F)(F)F)cc1 [compound 55]
12 | < 40 |  | CCc1nc2ccc(Cl)cn2c1C(=O)NCc1ccc(N2CCCCC2)cc1 [compound 74, 6-Chloro-2-ethyl-N-(4-(piperidin-1-yl)benzyl)imidazo[1,2-a]pyridine-3-carboxamide]
13 | < 40 |  | CCc1nc2cc(Cl)ccn2c1-c1nnc(Cc2ccc(F)cc2)o1 [compound 348, 2-(7-chloro-2-ethylimidazo[1,2-a]pyridin-3-yl)-5-(4-fluorobenzyl)-1,3,4-oxadiazole]
14 | < 40 |  | CCc1nc2cc(Cl)ccn2c1C(=O)OCc1ccc(Oc2ccc(F)cc2)cc1 [compound 203]
15 | < 40 |  | CCc1nc2ccc(Cl)cn2c1C(=O)NCc1ccc(N2CCC(C(=O)N(C)C)CC2)cc1 [compound 293, 6-Chloro-N-(4-(4-(dimethylcarbamoyl)piperidin-1-yl)benzyl)-2-ethylimidazo[1,2-a]pyridine-3-carboxamide]
